Data taken from ChEMBL document CHEMBL1201862, “PubChem BioAssay data set” (2004).
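Assay format: 96-well plates, 48-hour exposure. GI50: concentration for 50% inhibition of growth.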 Active and inactive are the calls of the source. No stated cut-off is given here; in the data, active = GI50 up to about 1.1 µM and inactive = higher.

Legend:
Test in all cases: DTP human tumour cell line panel, 48 h
RXF 393 = test system: RXF 393
786-0 = test system: 786-0
SK-OV-3 = test system: SK-OV-3
UACC-257 = test system: UACC-257
M14 = test system: M14
NCI-H460 = test system: NCI-H460
MOLT-4 = test system: MOLT-4
SW-620 = test system: SW-620
HCT-15 = test system: HCT-15
EKVX = test system: EKVX
HOP-92 = test system: HOP-92
HCC 2998 = test system: HCC 2998
LXFL 529 = test system: LXFL 529
NCI-H23 = test system: NCI-H23
OVCAR-3 = test system: OVCAR-3
SF-268 = test system: SF-268
NCI-H226 = test system: NCI-H226
MCF7 = test system: MCF7
DU-145 = test system: DU-145
MDA-MB-231 = test system: MDA-MB-231

Measured: GI50

c1ccc2c3c([nH]c2c1)[C@H]1C2CCCCN2CN1CC3 (some centres undefined)
> 100 µM: HCT-15
inactive: RXF 393 89.9 µM | 786-0 > 100 µM | SK-OV-3 > 100 µM | UACC-257 > 100 µM | M14 > 100 µM | NCI-H460 > 100 µM | MOLT-4 > 100 µM | SW-620 > 100 µM | EKVX > 100 µM | HOP-92 > 100 µM | HCC 2998 > 100 µM | LXFL 529 > 100 µM | NCI-H23 > 100 µM | OVCAR-3 > 100 µM | SF-268 51.6 µM

c1cc(-c2cn3ccsc3n2)ccn1
inactive: 786-0 38.4 µM | SK-OV-3 > 100 µM | UACC-257 > 100 µM | M14 > 100 µM | NCI-H460 99.3 µM | MOLT-4 > 100 µM | SW-620 > 43.1 µM | EKVX > 41.8 µM | HOP-92 > 100 µM | HCC 2998 > 100 µM | LXFL 529 > 100 µM | NCI-H226 > 100 µM | NCI-H23 > 100 µM | OVCAR-3 > 100 µM | SF-268 > 100 µM
> 44.2 µM: HCT-15

N#CC(NNC(=O)c1ccccc1O)c1cccc(O)c1 (centres undefined)
active: SF-268 0.986 µM
inactive: RXF 393 1.78 µM | 786-0 6.53 µM | SK-OV-3 3.93 µM | UACC-257 10.1 µM | M14 6.35 µM | NCI-H460 3.47 µM | MOLT-4 58.2 µM | SW-620 30.1 µM | HOP-92 4.25 µM | LXFL 529 4.31 µM | NCI-H226 11.5 µM | NCI-H23 2.9 µM | OVCAR-3 13 µM
5.31 µM: HCT-15

Cn1cc(NC(=O)c2cc(NC(=O)CCCCCCC(=O)Nc3cc(C(=O)Nc4cc(C(=O)NCCC(=N)N)n(C)c4)n(C)c3)cn2C)cc1C(=O)NCCC(=N)N
inactive: RXF 393 17 µM | 786-0 12.9 µM | SK-OV-3 > 100 µM | UACC-257 2.2 µM | M14 16 µM | NCI-H460 3.68 µM | SW-620 29.7 µM | EKVX 16.7 µM | HOP-92 > 100 µM | HCC 2998 10.7 µM | LXFL 529 5.92 µM | NCI-H23 3.91 µM | OVCAR-3 24.5 µM | SF-268 18.7 µM
32 µM: HCT-15

COc1ccc(-c2cc(C(=O)Nc3ccc(C)c(C)c3)nc(NC#N)n2)cc1
> 100 µM: HCT-15
inactive: RXF 393 > 100 µM | 786-0 > 100 µM | SK-OV-3 > 100 µM | UACC-257 > 100 µM | M14 > 100 µM | NCI-H460 > 100 µM | MOLT-4 > 100 µM | SW-620 > 100 µM | EKVX > 100 µM | LXFL 529 > 100 µM | NCI-H23 > 100 µM | OVCAR-3 > 100 µM | SF-268 > 100 µM

CC(=O)OCc1ccc(O)c(C=O)c1
46.5 µM: HCT-15
inactive: RXF 393 > 100 µM | 786-0 > 100 µM | SK-OV-3 > 100 µM | UACC-257 > 100 µM | M14 25.2 µM | NCI-H460 > 100 µM | MOLT-4 38.3 µM | MCF7 37.9 µM | SW-620 > 100 µM | EKVX 28.4 µM | HOP-92 43.3 µM | HCC 2998 > 100 µM | NCI-H226 > 100 µM | NCI-H23 > 100 µM | OVCAR-3 > 100 µM | DU-145 > 100 µM | MDA-MB-231 > 100 µM | SF-268 64.9 µM

N#Cc1cccc(-n2[nH]c(=O)ccc2=O)c1
inactive: 786-0 > 100 µM | UACC-257 > 100 µM | M14 > 100 µM | NCI-H460 > 100 µM | MOLT-4 > 100 µM | SW-620 > 100 µM | HOP-92 > 100 µM | HCC 2998 > 100 µM | LXFL 529 > 100 µM | NCI-H226 > 100 µM | NCI-H23 > 100 µM | OVCAR-3 > 100 µM | SF-268 > 100 µM
> 100 µM: HCT-15

N=C(N)C1=C(O)NC(=O)N(C2CCCCC2)C1
inactive: RXF 393 > 100 µM | 786-0 > 100 µM | SK-OV-3 > 100 µM | UACC-257 > 100 µM | M14 > 100 µM | NCI-H460 > 100 µM | MOLT-4 > 100 µM | SW-620 > 100 µM | HOP-92 > 100 µM | HCC 2998 > 100 µM | LXFL 529 > 100 µM | NCI-H226 > 100 µM | NCI-H23 > 100 µM | OVCAR-3 > 100 µM | SF-268 > 100 µM
> 100 µM: HCT-15

COCN1C(=O)C2CC(/C=C/C(N)=O)=CN2C(=O)c2ccccc21 (centres undefined)
inactive: RXF 393 > 100 µM | 786-0 > 100 µM | SK-OV-3 > 100 µM | M14 > 100 µM | NCI-H460 > 100 µM | MOLT-4 > 100 µM | SW-620 > 100 µM | EKVX > 100 µM | HCC 2998 > 100 µM | LXFL 529 > 100 µM | NCI-H226 > 100 µM | NCI-H23 > 100 µM | OVCAR-3 > 100 µM | SF-268 > 100 µM
